Measured values as given in article PMC8252180, “In vitro anti-Toxoplasma gondii efficacy of synthesised benzyltriazole derivatives” (The Onderstepoort Journal of Veterinary Research, 2021).
≈ marks a conversion by molar mass, not a printed value. Read-outs that look alike come from different tables or passages of the source.

Columns and labels:
Toxoplasma gondii RH-GFP = assay: In vitro growth inhibition assay (RH-GFP fluorescence in infected HFF cells); assay type: cell-based; settings: for inhibition at 50 µg/mL / IC50: Toxoplasma gondii; for inhibition at 50 µg/mL: HFF, read-out: % Parasite inhibition (mean ± s.d.); for IC50: read-out: IC50 (anti-toxoplasmosis activity)
Experimental: Briefly, HFF cells were seeded into 96-well plates (1 × 10^4 cells/well) and cultured for 48 h. Expressing green fluorescent protein (GFP) type I strain RH (RH-GFP) tachyzoites (Nishikawa et al. [2003]) were added to the wells (5 × 10^4 tachyzoites/well). After a 4-h incubation, extracellular parasites were removed by washing. Then, chemical compounds at a final concentration of 50 µg/mL were added. […] After a 72-h incubation, the fluorescence intensity of RH-GFP was measured to determine the parasite growth. Compounds with parasite inhibition ≥ 80% were further screened for dose–response effects at final concentrations of 3.125 µg/mL, 6.25 µg/mL, 12.5 µg/mL, 25 µg/mL and 50 µg/mL.

[1] = Cytotoxicity analysis on HFF cells (CCK-8); assay type: cell-based, human; settings: human, human foreskin fibroblasts (HFF) cells; test compounds at 50 µg/mL
Experimental: (§1) The cytotoxicity of the chemical compounds on human foreskin fibroblasts (HFF) cells was determined by using the cell counting kit-8 (CCK-8) (Dojindo Molecular Technologies, Inc. Japan) according to the manufacturer’s instructions. The compounds were dissolved in dimethyl sulfoxide (DMSO). HFF cells were plated in 96-well plates at a density of 1 × 10^4 cells per well. After a 48-h incubation at 37 °C in a 5% CO2 atmosphere, cells were exposed to various concentrations of tested chemical compounds (1 µg/mL, 5 µg/mL, 10 µg/mL, 25 µg/mL, 50 µg/mL and 100 µg/mL). Culture medium containing the same volume of DMSO was used as a negative control. After 24 h, the surviving cells were determined by adding CCK-8 reagent. Cell viability was measured based on the absorbance at 450 nm after an additional 4-h incubation.

[2] = system: Toxoplasma gondii PruΔku80Δhxgprt; assay: Bradyzoite differentiation assay (Vero cells, IFAT); assay type: cell-based; settings: 48 h; for Antitachyzoite activity: PruΔku80Δhxgprt; for Bradyzoite number: compounds 50 µg/mL (Figure 4 legend)
Experimental: Vero cells were plated in 12-well plates at a density of 1 × 10^5 cells per well and incubated for 24 h at 37 °C in a 5% CO2 atmosphere. Then, purified PruΔku80Δhxgprt tachyzoites were added to Vero cells at 1 mL/well (parasites per host cell ratio = 1:1). Two hours postinfection, chemical compounds were added in EMEM supplemented with 8% FBS. Indirect fluorescent antibody test was conducted after a 48-h incubation. Tachyzoites were stained by using anti-SAG1 mouse polyclonal antibody (Guo et al. [2019]), and bradyzoites were detected by using anti-GFP rabbit polyclonal antibody (Medical & Biological Laboratories CO., LDT, Japan). Secondary antibody Alexa Fluor 594-conjugated goat anti-mouse IgG (Invitrogen, United States) diluted 1:1000 and Alexa Fluor 488-conjugated goat anti-Rabbit IgG (Invitrogen, United States) diluted 1:1000 were used. Five fields per well were observed by using an All-in-one Fluorescence Microscope (BZ-9000, Keyence, Japan), and the percentage of bradyzoites was calculated.

[3] = system: Toxoplasma gondii RH-GFP tachyzoites; assay type: cell-based; settings: for Activity against extracellular and intracellular parasites: invasion and replication tests, FJS-302 10 µg/mL, FJS-303 and FJS-403 12.5 µg/mL, SFZ 1 mg/mL; for Infection rate (SAG1-positive Vero cells per 100 Vero cells): non-treated 11.3% ± 0.6%
Experimental: Vero cells were seeded on 12-well plates as described here, and purified RH-GFP tachyzoites were treated with FJS-302, FJS-303, FJS-403 or FJS-INH for 1 h at 37 °C. Then treated parasites were added to Vero cells in a 12-well plate (2 × 10^5 tachyzoites per well). At 2 h postinfection, the extracellular parasites were removed by washing, and the infected Vero cells were further incubated for 24 h at 37 °C in a 5% CO2 incubator. After incubation, IFAT was conducted as described here to evaluate the effects of the chemical compounds on parasite invasion. The infection rates were calculated as follows: [number of SAG1-positive Vero cells]/[100 randomly selected Vero cells]×100 [Eqn 1]
In addition, at least 10 fields were observed per group to measure the average number of parasites per field.

Vero cell viability = assay type: cell-based; settings: African green monkey, Vero cells; test compounds at 100 µg/mL
Description: (§2) TABLE 2 Screening of chemical compounds for anti-RH-GFP efficacy. | column: % viability Vero ^¶

[4] = system: human foreskin fibroblasts (HFF) cells; assay: Cytotoxicity analysis on HFF cells (CCK-8); assay type: cell-based; settings: for Effect on host cell viability / growth: HFF cells, 0-100 µg/mL, 24 h
Experimental: as §1

[5] = system: Toxoplasma gondii RH strain; settings: ref De Oliveira et al. [2009]; cited from earlier work
HFF cells = settings: 200 µg/mL of SFZ; ref De Oliveira et al. [2009]; cited from earlier work
Vero cells = assay: Vero cell viability; assay type: cell-based; settings: sulphadiazine at 1 mg/mL
Description: as §2

[6] = 72 h, test compounds at 50 µg/mL, 72 h, RH-GFP-infected HFF cells
[7] = parasites pretreated with 12.5 µg/mL
[8] = parasites pretreated with 12.5 µg/mL for 1 h
[9] = RH-GFP-infected HFF cells, 72 h, 3.125-50 µg/mL
[10] = test compounds at 50 µg/mL, 72 h, RH-GFP-infected HFF cells

SMILES: CCCCCCCCCCc1cn(Cc2ccc(C(F)(F)F)cc2)nn1 [FJS-404]
- inhibition at 50 µg/mL (Toxoplasma gondii RH-GFP; [6]): 64.5 ± 1.8%
- viability at 24 h, 50 µg/mL [1]: 100%

SMILES: CCCCCCCCc1cn(Cc2ccc(C(F)(F)F)cc2)nn1 [FJS-403]
- Antitachyzoite activity [2]: significant antitachyzoite activity
- Bradyzoite number [2]: did not increase the bradyzoite number
- Activity against extracellular and intracellular parasites [3]: effective against extra- and intracellular parasites
- Number of parasites per field after pretreatment [3, 7]: significantly reduced
- Infection rate (SAG1-positive Vero cells per 100 Vero cells) [3, 8]: 5.2% ± 0.7%
- viability at 100 µg/mL (Vero cell viability): 102%
- inhibition at 50 µg/mL (Toxoplasma gondii RH-GFP; [6]): > 80%
- IC50 (Toxoplasma gondii RH-GFP; [9]): 7 µg/mL (≈ 20.6 µM)
- % Parasite inhibition (mean ± s.d.) (Toxoplasma gondii RH-GFP; [10]): 91.5 ± 1.7%
- viability at 24 h, 50 µg/mL [1]: 103%
- Effect on host cell viability / growth [4]: no significant suppression on host cell growth

SMILES: CCCCCCCCc1cn(Cc2ccc(C)cc2)nn1 [FJS-303]
- Antitachyzoite activity [2]: significant antitachyzoite activity
- Bradyzoite number [2]: did not increase the bradyzoite number
- Activity against extracellular and intracellular parasites [3]: effective against extra- and intracellular parasites
- Number of parasites per field after pretreatment [3, 7]: significantly reduced
- Infection rate (SAG1-positive Vero cells per 100 Vero cells) [3, 8]: 5.8% ± 0.5%
- viability at 100 µg/mL (Vero cell viability): 101%
- inhibition at 50 µg/mL (Toxoplasma gondii RH-GFP; [6]): > 80%
- IC50 (Toxoplasma gondii RH-GFP; [9]): 6.8 µg/mL (≈ 23.8 µM)
- % Parasite inhibition (mean ± s.d.) (Toxoplasma gondii RH-GFP; [10]): 96.3 ± 3.9%
- viability at 24 h, 50 µg/mL [1]: 110%
- Effect on host cell viability / growth [4]: no significant suppression on host cell growth

SMILES: NNC(=O)c1ccncc1 [FJS-INH, isoniazid, reference compound]
- Antitachyzoite activity [2]: significant antitachyzoite activity
- Infection rate (SAG1-positive Vero cells per 100 Vero cells) ([3]; parasites pretreated with 50 µg/mL for 1 h): 10.7% ± 0.5%
- viability at 100 µg/mL (Vero cell viability): 98%
- Potency relative to the leading BnTz derivative (Toxoplasma gondii RH-GFP; T. gondii growth inhibition, from IC50): threefold less potent
- inhibition at 50 µg/mL (Toxoplasma gondii RH-GFP; [6]): > 80%
- IC50 (Toxoplasma gondii RH-GFP; [9]): 19.8 µg/mL (≈ 144 µM)
- % Parasite inhibition (mean ± s.d.) (Toxoplasma gondii RH-GFP; [10]): 87.2 ± 4.6%
- viability at 24 h, 50 µg/mL [1]: 118%
- Effect on host cell viability / growth [4]: no significant suppression on host cell growth

SMILES: CCCCCCCCCCc1cn(Cc2ccc(Br)cc2)nn1 [FJS-104]
- viability at 100 µg/mL (Vero cell viability): 103%
- inhibition at 50 µg/mL (Toxoplasma gondii RH-GFP; [6]): 62.2 ± 6%
- viability at 24 h, 50 µg/mL [1]: 100%

SMILES: CCCCc1cn(Cc2ccc(C)cc2)nn1 [FJS-301]
- viability at 100 µg/mL (Vero cell viability): 85.4%
- inhibition at 50 µg/mL (Toxoplasma gondii RH-GFP; [6]): 57.7 ± 3%
- viability at 24 h, 50 µg/mL [1]: 96.2%

SMILES: CCCCc1cn(Cc2ccccc2)nn1 [FJS-201]
- viability at 100 µg/mL (Vero cell viability): 99.3%
- inhibition at 50 µg/mL (Toxoplasma gondii RH-GFP; [6]): 64.6 ± 6.8%
- viability at 24 h, 50 µg/mL [1]: 100%

SMILES: Brc1ccc(Cn2cc(CSc3ccccc3)nn2)cc1 [FJS-105]
- viability at 100 µg/mL (Vero cell viability): 103%
- inhibition at 50 µg/mL (Toxoplasma gondii RH-GFP; [6]): 60.5 ± 6.1%
- viability at 24 h, 50 µg/mL [1]: 100%

SMILES: Nc1ccc(S(=O)(=O)Nc2ncccn2)cc1 [SFZ, sulphadiazine, reference compound]
- IC50 of SFZ on RH strain [5]: 70 µg/mL
- Bradyzoite number (GFP-positive parasitophorous vacuoles per field) ([2]; SFZ 1 mg/mL, no treatment 6.5 ± 1.5): 23.7 ± 6.0
- Bradyzoite rate (bradyzoite differentiation) ([2]; SFZ 1 mg/mL, no treatment 8.2% ± 1.9%): 46.6% ± 7.9%
- Activity against extracellular and intracellular parasites [3]: affected only intracellular parasite
- Infection rate (SAG1-positive Vero cells per 100 Vero cells) ([3]; parasites pretreated with 1 mg/mL for 1 h): 11.7% ± 1.3%
- Decrease of viability of HFF cells (HFF cells): 28%
- % viability Vero (Vero cells): 92.11%
- IC50 (anti-toxoplasmosis activity) (Toxoplasma gondii RH-GFP; [9]): 59.5 µg/mL (≈ 238 µM)
- % Parasite inhibition (mean ± s.d.) (Toxoplasma gondii RH-GFP; sulphadiazine at 1 mg/mL, 72 h, RH-GFP-infected HFF cells): 73.7 ± 4.6%
- % viability HFF ([4]; sulphadiazine at 1 mg/mL): 105.19%

SMILES: c1ccc(Cn2cc(CSc3ccccc3)nn2)cc1 [FJS-205]
- viability at 100 µg/mL (Vero cell viability): 101%
- inhibition at 50 µg/mL (Toxoplasma gondii RH-GFP; [6]): 60.2 ± 5.1%
- viability at 24 h, 50 µg/mL [1]: 100%

SMILES: FC(F)(F)c1ccc(Cn2cc(CSc3ccccc3)nn2)cc1 [FJS-405]
- viability at 100 µg/mL (Vero cell viability): 103%
- inhibition at 50 µg/mL (Toxoplasma gondii RH-GFP; [6]): 35 ± 5%
- viability at 24 h, 50 µg/mL [1]: 100%

SMILES: CCCCCCc1cn(Cc2ccc(C)cc2)nn1 [FJS-302]
- Antitachyzoite activity [2]: significant antitachyzoite activity
- Bradyzoite number [2]: did not increase the bradyzoite number
- Activity against extracellular and intracellular parasites [3]: effective against extra- and intracellular parasites
- Number of parasites per field after pretreatment ([3]; parasites pretreated with 10 µg/mL): significantly reduced
- Infection rate (SAG1-positive Vero cells per 100 Vero cells) ([3]; parasites pretreated with 10 µg/mL for 1 h): 6.2% ± 0.5%
- viability at 100 µg/mL (Vero cell viability): 86.1%
- inhibition at 50 µg/mL (Toxoplasma gondii RH-GFP; [6]): > 80%
- IC50 (Toxoplasma gondii RH-GFP; [9]): 5.6 µg/mL (≈ 21.8 µM)
- % Parasite inhibition (mean ± s.d.) (Toxoplasma gondii RH-GFP; [10]): 95.9 ± 4.6%
- viability at 24 h, 50 µg/mL [1]: 85%
- Effect on host cell viability / growth [4]: no significant suppression on host cell growth
